System: eyes
Assay: Corneal collagen cross-linking with riboflavin and sodium iodide; post-operative corneal haze
Format: in vivo
Conditions: corneal collagen cross-linking utilizing 0.5% riboflavin and 0.015% (1 mmol) sodium iodide; over 200 eyes; compared to historical cross-linking procedures performed without sodium iodide
Experimental: Corneal collagen cross-linking utilizing 0.5% riboflavin and 0.015% (1 mmol) sodium iodide was performed in over 200 eyes.

SMILES: [I-].[Na+] [sodium iodide]
- Post-operative corneal haze: minimal

— US11497766B2, “Compositions and methods for treating or preventing diseases associated with oxidative stress” (CXL OPHTHALMICS, LLC, priority 2012, dated 2022)
